We go through 8 compounds from paper PMC4485890 (PLoS ONE, 2015).

The target of assay [1] is T1, human NUDT16 (wild-type) (Homo sapiens, UniProt Q96DE0). Kind of assay: Determination of kinetic parameters of NUDT16 wild-type (malachite green phosphate release assay). The class given is biochemical. On the set-up: 6-His tag followed by TEV protease site (N, cleaved yes); made in house; host or cells: E. coli Rosetta pLysS. The note with it: for k cat/K m, This work / k cat, This work / K m, This work: Michaelis-Menten fit; for k cat, This work / K m, This work: substrate hydrolysis, 37°C; for K m, This work: buffer pH 7.5, 20 mM MgCl2; for Hydrolysis by NUDT16 (qualitative): malachite green assay, sub-μM K m not determinable. An excerpt:
To establish an assay to look for product inhibition and to understand the role of the different substituents present on the purine ring, we first wanted to assess the activity of our protein preparations and compare it to the results obtained by Iyama et al. on NUDT16 activity on different nucleotides. Contrary to the results presented in the structural biology part, we used wild-type NUDT16 (no A22V mutation) for these activity studies. Using a malachite green based activity assay for quantification of phosphate release, we determined the kinetic parameters of NUDT16 hydrolysis when incubated in the presence of ITP, XDP and ADP (S3A–S3C Fig), all of which have a suitable K m for assessment with this assay and for inhibition studies (low μM range). The results are summarized and compared in Table 1 with the literature values. […] Our K m values for XDP and ITP are in the same range as data reported in Iyama et al.. Discrepancies between the two studies can be explained by differences in the detection methods (HPLC or malachite green assay), the protein constructs (with or without His-tag) and the buffer conditions. […] However, the k cat for ADP was 15 times higher, leading to a catalytic efficiency in the same range as the one determined for XDP and ITP. Such a correlation between low affinity K m values and low apparent rate constant values is also noticeable when looking more broadly at available data for the purine based substrates.
(§1) Each sample point was obtained in the presence of 1 μM of NUDT16 (0.1 μM when assayed for activity against ITP) and various concentrations of substrates in buffer C (50 mM Tris-HCl pH 7.5, 150 mM NaCl, 20 mM MgCl2, 0.005% Tween-20, and 0.5 mM TCEP). When ITP was used as a substrate, 0.1 unit of yeast inorganic pyrophosphatase (Sigma-Aldrich) was added to the well. The activity assay was performed in 100 μl in a 96-well plate at 37°C and was stopped by addition of 25 μl of Malachite Green Working Solution (prepared as described in [42]). Plate was kept under shaking at room-temperature for 15 min, then 100 μl were transferred into a 384-well plate and the measurement of the absorbance at 630nm was carried out either on a CLARIOstar (BMG LABTECH) or a Victor^3 (PerkinElmer) reader.
(§2) The amount of free phosphate produced during the hydrolysis was estimated by comparison with a standard curve.
(§3) Experiments were performed in triplicate and data analysis was done on GraphPad Prism version 5.01 for Windows (GraphPad Software, San Diego California USA, www.graphpad.com).
(§4) For each assayed substrate, starting substrate concentrations (varying from 0.5 to 240 μM) and incubation times (from 20 to 240 min) were selected in order for the quasi-steady-state assumption to remain valid.

For a further assay, the system named is NUDT16. The note with it: cited from earlier work; for K m, Ref. 14 / k cat, Ref. 14 / k cat/K m, Ref. 14: literature values, ref 14 (Iyama et al).
A further assay addresses T2, NUDT16 A22V (Homo sapiens, UniProt Q96DE0, A22V).
T2 construct: 6-His tag followed by TEV protease site (N, cleaved yes); made in house; host or cells: E. coli Rosetta
Kind of assay: Determination of kinetic parameters of NUDT16 A22V (malachite green assay). The class given is biochemical. The note with it: A22V mutant, Michaelis-Menten fit. As to the method: It is worth noting that the protein construct used to obtain the two NUDT16 crystal structures harbors an A22V mutation (see Material and Methods section). […] This was confirmed by comparing the kinetic parameters of NUDT16 wild-type with those obtained with the A22V mutation (S1 Table) when NUDT16 was assayed against XDP and ITP. […] Detailed schemes of all interactions between protein, nucleotide and metals are shown on Fig 3C–3E.
as §1, §2, §3, §4
The procedure was identical whether NUDT16 wild-type or A22V was used in the assay.

In assay [2] the target is T1, human NUDT16 (wild-type). Kind of assay: Binding of products to NUDT16 by isothermal titration calorimetry.
Method: NUDT16 was dialyzed against 20 mM Hepes pH 7.5, 300 mM NaCl, 20 mM MgCl2, 10% glycerol, and 0.5 mM TCEP in a Slide-a-Lyzer cassette (7kDa cut-off). […] The buffer compositions in the cell and the syringe were carefully matched such that the sole difference between them was either the protein or the nucleotide content.
Titrations were performed at 25°C using 32 injections of 1.2μl of nucleotide solutions (following a 1μl pre-injection) spaced by 120 sec into the 200 μl experimental cell on a iTC200 MicroCal instrument (GE Healthcare) at the Karolinska Institutet/SciLifeLab Protein Science Core Facility (http://psf.ki.se).
Binding isotherm and thermodynamic constants were determined through fitting experimental data against a one-site binding-model (number of sites, ΔH and K a being unconstrained during refinement) on Origin software v7.0552 (OriginLab).
Setting [3] is: ITC, 25°C, one binding-site model.

Read-outs that look alike come from different tables or passages of the source.

T1 sequence (Q96DE0 whole entry): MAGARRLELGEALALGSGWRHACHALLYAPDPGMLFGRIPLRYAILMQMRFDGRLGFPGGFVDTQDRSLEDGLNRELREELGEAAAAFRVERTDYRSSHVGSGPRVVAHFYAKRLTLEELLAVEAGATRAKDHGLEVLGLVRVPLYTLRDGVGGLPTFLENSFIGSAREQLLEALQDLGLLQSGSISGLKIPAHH
T2 sequence (Q96DE0 whole entry A22V): as the sequence (Q96DE0 whole entry) above, with A22V counted along it

For the compound `O=c1[nH]c(=O)c2ncn([C@@H]3O[C@H](COP(=O)(O)OP(=O)(O)O)[C@@H](O)[C@H]3O)c2[nH]1` [XDP], at human NUDT16 (wild-type) [1] (NUDT16 wild-type), the “k cat/K m, This work” value is on record as 0.99 ± 0.23 10^3 s^-1M^-1; the “k cat, This work” value amounted to 0.00613 ± 0.0013 s⁻¹; the “K m, This work” value turned out to be 6.22 ± 0.55 µM. Also, in the assay with NUDT16, the “K m, Ref. 14” value was 15.7 µM; the “k cat, Ref. 14” value is 0.0433 s⁻¹; the “k cat/K m, Ref. 14” value was 2.76 10^3 s^-1M^-1. Also, on NUDT16 A22V, the Michaelis constant (Km) turned out to be 9.7 ± 1.25 µM and the “kcat, NUDT16 A22V” value is 0.00515 ± 0.0002 s⁻¹.

As to `Nc1nc2c(ncn2[C@@H]2O[C@H](COP(=O)(O)OP(=O)(O)O)[C@@H](O)[C@H]2O)c(=O)[nH]1` [GDP], the “Hydrolysis by NUDT16 (qualitative)” value at human NUDT16 (wild-type) [1] is given as “process efficiently”. For the same compound, in the assay on NUDT16, the “K m, Ref. 14” value was 0.33 µM; the “k cat, Ref. 14” value was 0.00863 s⁻¹; the “k cat/K m, Ref. 14” value is given as 26.1 10^3 s^-1M^-1.

With `Nc1nc(=O)c2ncn([C@@H]3O[C@H](COP(=O)(O)O)[C@@H](O)[C@H]3O)c2[nH]1` [GMP], the Kd at human NUDT16 (wild-type) [2] came to 34.25 ± 0.05 µM. The same compound gave a N sites at human NUDT16 (wild-type) [2] (setting [3]) of 1.080 ± 0.015.

For `O=c1[nH]cnc2c1ncn2[C@@H]1O[C@H](COP(=O)(O)OP(=O)(O)OP(=O)(O)O)[C@@H](O)[C@H]1O` [ITP], on human NUDT16 (wild-type) [1] (NUDT16 wild-type), the “k cat/K m, This work” value is listed as 1.55 ± 0.20 10^3 s^-1M^-1; the “k cat, This work” value came out at 0.0127 ± 0.0005 s⁻¹; the “K m, This work” value worked out at 8.23 ± 1.01 µM. Moreover, in the assay on NUDT16, the “K m, Ref. 14” value is 22.1 µM; the “k cat, Ref. 14” value was 0.051 s⁻¹; the “k cat/K m, Ref. 14” value is 2.31 10^3 s^-1M^-1. For the same compound, on NUDT16 A22V, the Km is 12.8 ± 1.46 µM and the “kcat, NUDT16 A22V” value came to 0.00657 ± 0.000217 s⁻¹.

In the case of `O=c1[nH]c(=O)c2ncn([C@@H]3O[C@H](COP(=O)(O)O)[C@@H](O)[C@H]3O)c2[nH]1` [XMP], at human NUDT16 (wild-type) [2], the dissociation constant Kd was found to be 39.06 ± 0.07 µM. Also, the N sites on human NUDT16 (wild-type) [2] (setting [3]) is listed as 0.821 ± 0.024.

Regarding `O=P(O)(O)OP(=O)(O)OC[C@H]1O[C@@H](n2cnc3c(O)ncnc32)[C@H](O)[C@@H]1O` [IDP, inosine diphosphate], the “Hydrolysis by NUDT16 (qualitative)” value on human NUDT16 (wild-type) [1] is on record as “process efficiently”. Further, in the assay with NUDT16, the “K m, Ref. 14” value was 0.066 µM; the “k cat, Ref. 14” value was 0.0155 s⁻¹; the “k cat/K m, Ref. 14” value was 251 10^3 s^-1M^-1. In addition, the “K m for IDP relative to ITP (times lower)” value in the assay with NUDT16 (ref 14 (Iyama et al.)) is reported as 350 times.

Take `Nc1ncnc2c1ncn2[C@@H]1O[C@H](COP(=O)(O)OP(=O)(O)O)[C@@H](O)[C@H]1O` [ADP]: at human NUDT16 (wild-type) [1] (NUDT16 wild-type), the “K m for ADP relative to XDP (times higher)” value is on record as “about 30 times”; the “k cat for ADP relative to XDP (times higher)” value is given as 15 times; the “k cat/K m, This work” value is reported as 0.52 ± 0.10 10^3 s^-1M^-1; the “k cat, This work” value was 0.0959 ± 0.00897 s⁻¹. Besides, the “K m, This work” value at human NUDT16 (wild-type) [1] (NUDT16 wild-type) was determined as 185 ± 32 µM.

For `Nc1ncnc2c1ncn2[C@@H]1O[C@H](COP(=O)(O)O)[C@@H](O)[C@H]1O` [AMP], the equilibrium dissociation constant (Kd) result on human NUDT16 (wild-type) [2] (ITC, 25°C, one binding-site model, 20 mM MgCl2, pH 7.5) is reported as “too low for establishing good binding constants”.

The Km is the substrate concentration at which the rate is half of its maximum. The Kd is the constant that tells how readily two partners part at equilibrium. Low values mean tighter binding, high ones weaker binding.
